For 39 compounds, melting point results are on record in US8486977B2, “1,2,3-triazole derivatives for use as stearoyl-CoA desaturase inhibitors” (GlaxoSmithKline LLC, priority 2007, dated 2013).

Where only a bound is given, the exact number is not on record here.

By melting point is commonly meant the temperature of the solid-liquid transition. As for `Cc1c(C(=O)Nc2ccc(CO)cc2)nnn1Cc1ccccc1` [Example 38, N-[4-(Hydroxymethyl)phenyl]-5-methyl-1-(phenylmethyl)-1H-1,2,3-triazole-4-carboxamide], the melting point is 149.1 °C. As to `Cc1c(C(=O)Nc2cc(CO)cc(CO)c2)nnn1Cc1ccc(F)cc1` [Example 81, N-[3,5-bis(Hydroxymethyl)phenyl]-1-[(4-fluorophenyl)methyl]-5-methyl-1H-1,2,3-triazole-4-carboxamide], the melting point amounted to 180.3 °C. Compound `Cc1c(C(=O)Nc2cccc(CO)c2)nnn1Cc1cc(Cl)cc(Cl)c1` [Example 40, 1-[(3,5-Dichlorophenyl)methyl]-N-[3-(hydroxymethyl)phenyl]-5-methyl-1H-1,2,3-triazole-4-carboxamide] yielded a melting point of 159 °C. Consider `COC(=O)c1cc(NC(=O)c2nnn(Cc3ccc(Cl)c(Cl)c3)c2C)ccc1O` [Example 29, Methyl 5-[({1-[(3,4-dichlorophenyl)methyl]-5-methyl-1H-1,2,3-triazol-4-yl}carbonyl)amino]-2-hydroxybenzoate], for which the melting point came to 180 °C. `Cc1c(CO)cccc1NC(=O)c1nnn(Cc2ccc(Cl)c(Cl)c2)c1C` [Example 23, 1-[(3,4-Dichlorophenyl)methyl]-N-[3-(hydroxymethyl)-2-methylphenyl]-5-methyl-1H-1,2,3-triazole-4-carboxamide] came in with a melting point of 174.3 °C.

In turn, `Cc1c(C(=O)Nc2cccc(CO)c2)nnn1Cc1ccc(F)cc1` [Example 87, 1-[(4-Fluorophenyl)methyl]-N-[3-(hydroxymethyl)phenyl]-5-methyl-1H-1,2,3-triazole-4-carboxamide] had a melting point of 142.1 °C.

With `Cc1c(C(=O)Nc2ccc(F)c(CO)c2)nnn1Cc1cc(Cl)cc(Cl)c1` [Example 59, 1-[(3,5-Dichlorophenyl)methyl]-N-[4-fluoro-3-(hydroxymethyl)phenyl]-5-methyl-1H-1,2,3-triazole-4-carboxamide], the melting point is 178 °C. With `CC(=O)Nc1ccc(NC(=O)c2nnn(Cc3ccc(Cl)c(Cl)c3)c2C)cc1` [Example 22, N-[4-(Acetylamino)phenyl]-1-[(3,4-dichlorophenyl)methyl]-5-methyl-1H-1,2,3-triazole-4-carboxamide] the figure was 202.4 °C; with `Cc1c(C(=O)Nc2cccc(CO)c2)nnn1Cc1cccc(F)c1` [Example 89, 1-[(3-Fluorophenyl)methyl]-N-[3-(hydroxymethyl)phenyl]-5-methyl-1H-1,2,3-triazole-4-carboxamide], 124.7 °C. `Cc1c(C(=O)Nc2cccc(CO)c2)nnn1Cc1ccc(Cl)c(Cl)c1` [Example 24, 1-[(3,4-Dichlorophenyl)methyl]-N-[3-(hydroxymethyl)phenyl]-5-methyl-1H-1,2,3-triazole-4-carboxamide]: the melting point turned out to be 185.2 °C. As for `COC(=O)c1ccc(Cl)c(NC(=O)c2nnn(Cc3ccc(Cl)c(Cl)c3)c2C)c1` [Example 34, Methyl 4-chloro-3-[({1-[(3,4-dichlorophenyl)methyl]-5-methyl-1H-1,2,3-triazol-4-yl}carbonyl)amino]benzoate], the melting point was 206.4 °C. For the compound `CNC(=O)c1ccc(NC(=O)c2nnn(Cc3ccc(Cl)c(Cl)c3)c2C)cc1` [Example 19, 1-[(3,4-Dichlorophenyl)methyl]-5-methyl-N-{4-[(methylamino)carbonyl]phenyl}-1H-1,2,3-triazole-4-carboxamide], the melting point is 183.7 °C.

For the compound `Cc1c(C(=O)Nc2ccc(OCCC(C)C)cc2)nnn1Cc1ccc(-c2ccccc2Cl)cc1` [Example 9, 1-[(2’-Chloro-4-biphenylyl)methyl]-5-methyl-N-{4-[(3-methylbutyl)oxy]phenyl}-1H-1,2,3-triazole-4-carboxamide], the melting point is 125 °C (dec.).

Take `CC(=O)OCc1cccc(NC(=O)c2nnn(Cc3ccc(Cl)c(Cl)c3)c2C)c1` [Example 70, {3-[({1-[(3,4-Dichlorophenyl)methyl]-5-methyl-1H-1,2,3-triazol-4-yl}carbonyl)amino]phenyl}methyl acetate]: the melting point is > 70 °C. Regarding `Cc1c(C(=O)Nc2cc(CO)cc(CO)c2)nnn1Cc1cccc(Cl)c1` [Example 61, -[3,5-bis(Hydroxymethyl)phenyl]-1-[(3-chlorophenyl)methyl]-5-methyl-1H-1,2,3-triazole-4-carboxamide], the melting point was found to be 192.7 °C. As for `Cc1c(C(=O)Nc2ccc(C(=O)O)cc2)nnn1Cc1ccc(Cl)c(Cl)c1` [Example 66, 4-[({1-[(3,4-Dichlorophenyl)methyl]-5-methyl-1H-1,2,3-triazol-4-yl}carbonyl)amino]benzoic acid], the melting point was > 260 °C.

For `Cc1c(C(=O)Nc2cccc(CO)c2)nnn1Cc1ccccc1` [Example 37, N-[3-(Hydroxymethyl)phenyl]-5-methyl-1-(phenylmethyl)-1H-1,2,3-triazole-4-carboxamide], the melting point was determined as 105.8 °C. In turn, `COc1ccc(CO)cc1NC(=O)c1nnn(Cc2cc(Cl)cc(Cl)c2)c1C` [Example 57, 1-[(3,5-Dichlorophenyl)methyl]-N-[5-(hydroxymethyl)-2-(methyloxy)phenyl]-5-methyl-1H-1,2,3-triazole-4-carboxamide] yielded a melting point of 214 °C. Regarding `Cc1c(C(=O)Nc2cccc(C(C)O)c2)nnn1Cc1ccc(Cl)c(Cl)c1` (stereo not drawn) [Example 44, 1-[(3,4-Dichlorophenyl)methyl]-N-[3-(1-hydroxyethyl)phenyl]-5-methyl-1H-1,2,3-triazole-4-carboxamide], the melting point stood at 145 °C. The compound `COC(=O)c1cc(NC(=O)c2nnn(Cc3cc(Cl)cc(Cl)c3)c2C)ccc1F` [Example 47, Methyl 5-[({1-[(3,5-dichlorophenyl)methyl]-5-methyl-1H-1,2,3-triazol-4-yl}carbonyl)amino]-2-fluorobenzoate] gave a melting point of 191 °C. Regarding `Cc1c(C(=O)Nc2ccc(OCCN(C)C)c(CO)c2)nnn1Cc1ccc(Cl)c(Cl)c1` [Example 77, 1-[(3,4-Dichlorophenyl)methyl]-N-[4-{[2-(dimethylamino)ethyl]oxy}-3-(hydroxymethyl)phenyl]-5-methyl-1H-1,2,3-triazole-4-carboxamide], the melting point was 163.1 °C. Take `Cc1c(NC(=O)c2ccc(CO)cc2)nnn1Cc1ccc(Cl)c(Cl)c1` [Example 93, N-{1-[(3,4-Dichlorophenyl)methyl]-5-methyl-1H-1,2,3-triazol-4-yl}-4-(hydroxymethyl)benzamide]: the melting point was 160 °C. `CCOC(=O)c1cccc(NC(=O)c2nnn(Cc3ccc(Cl)c(Cl)c3)c2C)c1` [Example 20, Ethyl 3-[({1-[(3,4-dichlorophenyl)methyl]-5-methyl-1H-1,2,3-triazol-4-yl}carbonyl)amino]benzoate]: the melting point was determined as 131.8 °C. Compound `COC(=O)Cc1cccc(NC(=O)c2nnn(Cc3ccc(Cl)c(Cl)c3)c2C)c1` [Example 30, Methyl {3-[({1-[(3,4-dichlorophenyl)methyl]-5-methyl-1H-1,2,3-triazol-4-yl}carbonyl)amino]phenyl}acetate] came in with a melting point of 116 °C.

For `Cc1c(C(=O)Nc2ccc(CO)cc2)nnn1Cc1cccc(F)c1` [Example 91, 1-[(3-Fluorophenyl)methyl]-N-[4-(hydroxymethyl)phenyl]-5-methyl-1H-1,2,3-triazole-4-carboxamide], the melting point came to 134.3 °C. Compound `COc1ccc(NC(=O)c2nnn(Cc3ccc(F)cc3)c2C)cc1OC` had a melting point of 119.7 °C. `COC(=O)c1ccc(NC(=O)c2nnn(Cc3ccc(Cl)c(Cl)c3)c2C)cc1OC` [Example 28, Methyl 4-[({1-[(3,4-dichlorophenyl)methyl]-5-methyl-1H-1,2,3-triazol-4-yl}carbonyl)amino]-2-(methyloxy)benzoate] returned a melting point of 175.9 °C.

With `Cc1c(C(=O)Nc2cccc(O)c2)nnn1Cc1ccc(Cl)c(Cl)c1`, the melting point turned out to be 192.5 °C.

The compound `Cc1c(CO)cccc1NC(=O)c1nnn(Cc2cc(Cl)cc(Cl)c2)c1C` [Example 42, 1-[(3,5-Dichlorophenyl)methyl]-N-[3-(hydroxymethyl)-2-methylphenyl]-5-methyl-1H-1,2,3-triazole-4-carboxamide] returned a melting point of 185 °C.

For the compound `COc1ccc(NC(=O)c2cn(Cc3ccc(F)cc3)nn2)cc1OC`, the melting point is 197.8 °C. In the case of `Cc1c(C(=O)Nc2cc(CO)cc(CO)c2)nnn1Cc1ccc(Cl)c(Cl)c1` [Example 52, N-[3,5-bis(Hydroxymethyl)phenyl]-1-[(3,4-dichlorophenyl)methyl]-5-methyl-1H-1,2,3-triazole-4-carboxamide], the melting point came to 194.5 °C. The compound `Cc1ccc(Cn2nnc(C(=O)Nc3ccc(OCCC(C)C)cc3)c2C)cc1` showed a melting point of 105 °C. The compound `Cc1c(C(=O)Nc2ccc(OCCO)cc2)nnn1Cc1ccc(Cl)c(Cl)c1` [Example 74, 1-[(3,4-Dichlorophenyl)methyl]-N-{4-[(2-hydroxyethyl)oxy]phenyl}-5-methyl-1H-1,2,3-triazole-4-carboxamide] had a melting point of 140 °C. With `COC(=O)c1ccc(NC(=O)c2nnn(Cc3ccc(Cl)c(Cl)c3)c2C)c(OC)c1` [Example 17, Methyl 4-[({1-[(3,4-dichlorophenyl)methyl]-5-methyl-1H-1,2,3-triazol-4-yl}carbonyl)amino]-3-(methyloxy)benzoate], the melting point stood at 212 °C. With `Cc1c(C(=O)Nc2cc(CO)ccc2Cl)nnn1Cc1ccc(Cl)c(Cl)c1` [Example 56, N-[2-Chloro-5-(hydroxymethyl)phenyl]-1-[(3,4-dichlorophenyl)methyl]-5-methyl-1H-1,2,3-triazole-4-carboxamide] the figure was 220 °C; with `Cc1c(C(=O)Nc2ccc(CO)c(CO)c2)nnn1Cc1ccccc1` [Example 80, N-[3,4-bis(Hydroxymethyl)phenyl]-5-methyl-1-(phenylmethyl)-1H-1,2,3-triazole-4-carboxamide], 171.4 °C. As to `Cc1c(C(=O)Nc2ccc(OCCC(C)C)cc2)nnn1Cc1ccccc1`, the melting point amounted to 124 °C. As to `COc1ccc(NC(=O)c2nnn(Cc3ccc(C)cc3)c2C)cc1OC`, the melting point is 156 °C (dec.). In the case of `C=C(C)c1ccc(NC(=O)c2nnn(Cc3ccc(Cl)c(Cl)c3)c2C)c(OC)c1`, the melting point was 170 °C.
